Test results taken from PubChem BioAssay AID2060907 (Molecular Pharmacology Branch, DTP, NCI, 2025).
Each block holds one compound with its values, some of them ahead of it.

System: 388556-164-R-J1-PDC complex spheroid viability
Assay: Anticancer human tumor 388556-164-R-J1-PDC patient-derived colon adenocarcinoma cell line growth inhibition [RAS]
Settings: for IC50: curve of first compound; for viability, T/C: stronger effect = lower value
In short: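 Tumour cells grown as complex spheroids with HUVEC endothelial cells and mesenchymal stem cells, treated with RAS pathway inhibitor combinations. Each agent spans half-log steps from near clinical Cmax, or 10 microM where Cmax is unknown.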

[1] = second compound 0.0316 µM, first compound 0.0316 µM
[2] = second compound 0.0316 µM, first compound 0.1 µM
[3] = second compound 0.0316 µM, first compound 0.316 µM
[4] = second compound 0.0316 µM, first compound 1 µM
[5] = second compound 0.1 µM, first compound 0.0316 µM
[6] = second compound 0.1 µM, first compound 0.1 µM
[7] = second compound 0.1 µM, first compound 0.316 µM
[8] = second compound 0.1 µM, first compound 1 µM
[9] = second compound 0.316 µM, first compound 0.0316 µM
[10] = second compound 0.316 µM, first compound 0.1 µM
[11] = second compound 0.316 µM, first compound 0.316 µM
[12] = second compound 0.316 µM, first compound 1 µM
[13] = second compound 1 µM, first compound 0.0316 µM
[14] = second compound 1 µM, first compound 0.1 µM
[15] = second compound 1 µM, first compound 0.316 µM
[16] = second compound 1 µM, first compound 1 µM
[17] = second compound 3.16 µM, first compound 0.0316 µM
[18] = second compound 3.16 µM, first compound 0.1 µM
[19] = second compound 3.16 µM, first compound 0.316 µM
[20] = second compound 3.16 µM, first compound 1 µM
[21] = second compound 10 µM, first compound 0.0316 µM
[22] = second compound 10 µM, first compound 0.1 µM
[23] = second compound 10 µM, first compound 0.316 µM
[24] = second compound 10 µM, first compound 1 µM
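Also: spheroids exposed to compound for 7 days before readout.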
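For viability, T/C in this document: 100% = DMSO vehicle control luminescence.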

IC50 (second compound 0.0316 µM): > 10 µM | IC50 (second compound 0.1 µM): > 10 µM | IC50 (second compound 0.316 µM): > 10 µM | IC50 (second compound 1 µM): > 10 µM | IC50 (second compound 3.16 µM): 6.13 µM | IC50 (second compound 10 µM): 0.811 µM
SMILES: CC(=O)OC12COC1CC(O)C1(C)C(=O)C(O)C3=C(C)C(OC(=O)C(O)C(NC(=O)OC(C)(C)C)c4ccccc4)CC(O)(C(OC(=O)c4ccccc4)C21)C3(C)C (centres undefined) + C#Cc1c(F)ccc2cc(O)cc(-c3ncc4c(N5CC6CCC(C5)N6)nc(OCC56CCCN5CC(F)C6)nc4c3F)c12
viability, T/C [1]: 80.7% | viability, T/C [2]: 80.8% | viability, T/C [3]: 76.1% | viability, T/C [4]: 76.1% | viability, T/C (second compound 0.0316 µM, first compound 3.16 µM): 74.5% | viability, T/C (second compound 0.0316 µM, first compound 10 µM): 75.1% | viability, T/C [5]: 87.6% | viability, T/C [6]: 80.8% | viability, T/C [7]: 71.5% | viability, T/C [8]: 75.2% | viability, T/C (second compound 0.1 µM, first compound 3.16 µM): 78.9% | viability, T/C (second compound 0.1 µM, first compound 10 µM): 75.4% | viability, T/C [9]: 82.5% | viability, T/C [10]: 73.7% | viability, T/C [11]: 67.4% | viability, T/C [12]: 69.7% | viability, T/C (second compound 0.316 µM, first compound 3.16 µM): 77.1% | viability, T/C (second compound 0.316 µM, first compound 10 µM): 59% | viability, T/C [13]: 78.5% | viability, T/C [14]: 74.4% | viability, T/C [15]: 59.6% | viability, T/C [16]: 67.4% | viability, T/C (second compound 1 µM, first compound 3.16 µM): 69% | viability, T/C (second compound 1 µM, first compound 10 µM): 49.8% | viability, T/C [17]: 72.8% | viability, T/C [18]: 58.2% | viability, T/C [19]: 59% | viability, T/C [20]: 65.8% | viability, T/C (second compound 3.16 µM, first compound 3.16 µM): 63.3% | viability, T/C (second compound 3.16 µM, first compound 10 µM): 40.2% | viability, T/C [21]: 56.6% | viability, T/C [22]: 48.2% | viability, T/C [23]: 52.4% | viability, T/C [24]: 54.7% | viability, T/C (second compound 10 µM, first compound 3.16 µM): 40.1% | viability, T/C (second compound 10 µM, first compound 10 µM): 35.5%

IC50 (second compound 0.0316 µM): > 1 µM | IC50 (second compound 0.1 µM): > 1 µM | IC50 (second compound 0.316 µM): > 1 µM | IC50 (second compound 1 µM): > 1 µM | IC50 (second compound 3.16 µM): > 1 µM | IC50 (second compound 10 µM): > 1 µM
SMILES: Nc1ccn(C2OC(CO)C(O)C2(F)F)c(=O)n1 (centres undefined) + C#Cc1c(F)ccc2cc(O)cc(-c3ncc4c(N5CC6CCC(C5)N6)nc(OCC56CCCN5CC(F)C6)nc4c3F)c12
viability, T/C (second compound 0.0316 µM, first compound 0.00316 µM): 95% | viability, T/C (second compound 0.0316 µM, first compound 0.01 µM): 95.6% | viability, T/C [1]: 86% | viability, T/C [2]: 79.5% | viability, T/C [3]: 76% | viability, T/C [4]: 72.6% | viability, T/C (second compound 0.1 µM, first compound 0.00316 µM): 106% | viability, T/C (second compound 0.1 µM, first compound 0.01 µM): 96.6% | viability, T/C [5]: 80.4% | viability, T/C [6]: 74.9% | viability, T/C [7]: 74.9% | viability, T/C [8]: 78.5% | viability, T/C (second compound 0.316 µM, first compound 0.00316 µM): 98.9% | viability, T/C (second compound 0.316 µM, first compound 0.01 µM): 93.2% | viability, T/C [9]: 60.9% | viability, T/C [10]: 74.8% | viability, T/C [11]: 75.8% | viability, T/C [12]: 64.7% | viability, T/C (second compound 1 µM, first compound 0.00316 µM): 98.6% | viability, T/C (second compound 1 µM, first compound 0.01 µM): 82.5% | viability, T/C [13]: 60.1% | viability, T/C [14]: 76.9% | viability, T/C [15]: 75.5% | viability, T/C [16]: 54.2% | viability, T/C (second compound 3.16 µM, first compound 0.00316 µM): 82.6% | viability, T/C (second compound 3.16 µM, first compound 0.01 µM): 70.1% | viability, T/C [17]: 69.5% | viability, T/C [18]: 67.1% | viability, T/C [19]: 68% | viability, T/C [20]: 54.1% | viability, T/C (second compound 10 µM, first compound 0.00316 µM): 76.3% | viability, T/C (second compound 10 µM, first compound 0.01 µM): 67.1% | viability, T/C [21]: 52.6% | viability, T/C [22]: 54.9% | viability, T/C [23]: 48.5% | viability, T/C [24]: 49.1%
